Measurements published in patent US20100210836A1, “SMALL MOLECULE INHIBITORS OF LYMPHOID TYROSINE PHOSPHATASE” (University of Southern California, priority 2009, published 2010).
Read-outs that look alike come from different tables or passages of the source.

Columns and labels:
[1] = molecular target: T1, PTP-PEST (Homo sapiens, UniProt Q05209); assay: Counter-screen phosphatase assay PTP-PEST; type: biochemical; conditions: read-out: PEST IC50
T1 sequence (Q05209 2-323): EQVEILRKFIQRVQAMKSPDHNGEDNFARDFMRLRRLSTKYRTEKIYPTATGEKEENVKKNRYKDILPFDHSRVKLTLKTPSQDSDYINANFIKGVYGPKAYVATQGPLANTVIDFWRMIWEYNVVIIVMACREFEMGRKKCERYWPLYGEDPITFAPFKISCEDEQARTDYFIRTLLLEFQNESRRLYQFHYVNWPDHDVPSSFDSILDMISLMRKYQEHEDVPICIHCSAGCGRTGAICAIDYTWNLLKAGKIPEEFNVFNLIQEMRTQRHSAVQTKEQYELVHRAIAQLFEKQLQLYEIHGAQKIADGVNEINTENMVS

[2] = molecular target: T2, LYP/PTPN22 (Homo sapiens, UniProt Q9Y2R2); assay: biochemical
T2 construct: catalytic domains of LYP (aa 2-309) and PTP-PEST (aa 2-323, PEST); 6xHis (N, cleaved yes); made in house; host or cells: E. coli BL21
T2 sequence (Q9Y2R2 2-309): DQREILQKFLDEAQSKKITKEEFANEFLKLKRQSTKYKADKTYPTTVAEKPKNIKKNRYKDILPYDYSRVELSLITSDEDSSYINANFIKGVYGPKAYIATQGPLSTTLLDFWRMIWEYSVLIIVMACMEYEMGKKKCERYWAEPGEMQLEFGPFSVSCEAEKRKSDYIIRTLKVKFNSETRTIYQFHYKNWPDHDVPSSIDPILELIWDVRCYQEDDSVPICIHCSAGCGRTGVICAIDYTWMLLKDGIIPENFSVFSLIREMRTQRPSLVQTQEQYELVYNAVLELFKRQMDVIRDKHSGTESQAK
Experimental: Chemical Library Screening for LYP Inhibitors. A library consisting of a highly diverse set of 4,000 compounds was screened in a 96-well format in an assay specific for LYP activity. […] The reaction mixture with the compounds was incubated for 25 min at 37° C. […] All assays were done in triplicate. The IC50 values were then determined for each drug from a plot of log [drug concentration] versus percentage of enzyme inhibition. Absorbance data were measured using a Molecular Devices Emax Precision Microplate reader.
Identification of Compounds as LYP Inhibitors. We initially screened a library of 4000 drug-like small-molecule compounds against LYP/PTPN22, using p-nitrophenyl phosphate (pNPP) as a substrate. The ability of the library members to inhibit LYP/PTPN22 catalyzed hydrolysis of pNPP was measured in a buffer containing 50 mM Bis-Tris pH 6.0, 1 mM DTT at 37° C.

[3] = LYP IC50, Table IV, analogues of E3P13
[4] = selectivity, ratio PEST IC50 / LYP IC50, Table IV
[5] = Table IV, analogues of E3P13, read-out: LYP IC50

IC50 [1] | IC50 [2, 3] | SMILES | other results
– | > 40 µM | Cc1cccc2cc([C@H](c3nnnn3CC3CCCC3)N3CCCC4(CCCCC4)C3)c(=O)[nH]c12 [compound 51] | –
– | > 40 µM | Cc1ccc2[nH]c(=O)c([C@H](c3nnnn3C3CCCC3)N(C)C3CCCCC3)cc2c1 [compound 53] | –
– | > 40 µM | Cc1ccc2[nH]c(=O)c([C@@H](c3nnnn3C3CCCC3)N3CCCCCC3)cc2c1 [compound 54] | –
– | > 40 µM | COc1ccc2cc([C@H](c3nnnn3CC3CCCC3)N3CCCC4(CCCCC4)C3)c(=O)[nH]c2c1 [compound 55] | –
– | > 40 µM | Cc1ccc2[nH]c(=O)c([C@H](c3nnnn3C3CCCC3)N3CCN4CCC[C@H]4C3)cc2c1 [compound 57] | –
– | > 40 µM | Cc1ccc2[nH]c(=O)c([C@@H](c3nnnn3C3CCCC3)N3CCOCC3)cc2c1 [compound 58] | –
– | > 40 µM | Cc1ccc2[nH]c(=O)c([C@@H](c3nnnn3C3CCCC3)N3CCCC3)cc2c1 [compound 59] | –
– | > 40 µM | Cc1ccc2cc([C@H](c3nnnn3C3CCCC3)N3CCC[C@@H](C)C3)c(=O)[nH]c2c1C [compound 60] | –
– | > 40 µM | Cc1cc(C)c2[nH]c(=O)c([C@H](c3nnnn3C3CCCC3)N3CCCCC3)cc2c1 [compound 61] | –
– | > 40 µM | Cc1cc(C)c2[nH]c(=O)c([C@H](c3nnnn3C3CCCC3)N3CCC(C)CC3)cc2c1 [compound 62] | –
– | > 40 µM | Cc1ccc2cc([C@@H](c3nnnn3C3CCCC3)N3CCCCC3)c(=O)[nH]c2c1C [compound 63] | –
– | > 40 µM | COc1ccc2cc([C@@H](c3nnnn3C3CCCC3)N3CCCCC3)c(=O)[nH]c2c1 [compound 64] | –
– | > 40 µM | COc1ccc2cc([C@@H](c3nnnn3C3CCCC3)N3CCC(C)CC3)c(=O)[nH]c2c1 [compound 65] | –
– | > 40 µM | COc1ccc2cc([C@H](c3nnnn3C3CCCC3)N3CCN(c4ccccc4)CC3)c(=O)[nH]c2c1 [compound 66] | –
– | > 40 µM | COc1ccc(N2CCN([C@H](c3cc4ccc(OC)cc4[nH]c3=O)c3nnnn3C3CCCC3)CC2)cc1 [compound 67] | –
– | > 40 µM | Cc1ccc2cc([C@@H](c3nnnn3C3CCCC3)N3CCCCC3)c(=O)[nH]c2c1 [compound 68] | –
– | > 40 µM | Cc1cccc2cc([C@H](c3nnnn3C3CCCCC3)N3CCN(Cc4ccccc4)CC3)c(=O)[nH]c12 [compound 69] | –
– | > 40 µM | Cc1cc(C)c2cc([C@H](c3nnnn3C3CCCC3)N3CCCCC3)c(=O)[nH]c2c1 [compound 70] | –
– | > 40 µM | Cc1cc(C)c2cc([C@H](c3nnnn3C3CCCC3)N3CCC(C)CC3)c(=O)[nH]c2c1 [compound 71] | –
– | > 40 µM | Cc1cccc2cc([C@H](c3nnnn3C3CCCC3)N3CCC[C@@H](C)C3)c(=O)[nH]c12 [compound 72] | –
– | > 40 µM | Cc1cccc2cc([C@H](c3nnnn3C3CCCC3)N3CCN(C)CC3)c(=O)[nH]c12 [compound 75] | –
– | > 40 µM | Cc1cccc2cc([C@@H](c3nnnn3C3CCCC3)N3CCCCC3)c(=O)[nH]c12 [compound 76] | –
– | > 40 µM | Cc1ccc2[nH]c(=O)c([C@H](c3nnnn3C3CCCC3)N3CCC(O)CC3)cc2c1 [compound 78] | –
– | > 40 µM | CCOC(=O)C1CCN([C@H](c2cc3cc(C)ccc3[nH]c2=O)c2nnnn2C2CCCC2)CC1 [compound 79] | –

Continued, molecule first:

SMILES | IC50 [1] | IC50 [2, 3] | other results
Cc1ccc2[nH]c(=O)c(C(c3nnnn3C3CCCC3)N(Cc3ccccc3)Cc3ccc(C(C)C)cc3)cc2c1 (stereo not drawn) [compound 1] | 5.55 µM | – | –
Cc1ccc2[nH]c(=O)c(C(c3nnnn3C3CCCC3)N3CCN(C(c4ccccc4)c4ccccc4)CC3)cc2c1 (stereo not drawn) [compound 3] | 8.71 µM | – | PEST_LYP [2]: 1.38; IC50 ([2]; LYP IC50): 6.3 µM
Cc1ccc2cc(C(c3nnnn3C3CCCC3)N(Cc3ccccc3)Cc3ccc(C(C)C)cc3)c(=O)[nH]c2c1 (stereo not drawn) [compound 4] | 9.96 µM | – | PEST_LYP [2]: 1.31; IC50 ([2]; LYP IC50): 7.62 µM
Cc1ccc2cc(C(c3nnnn3C3CCCC3)N3CCN(C(c4ccccc4)c4ccccc4)CC3)c(=O)[nH]c2c1 (stereo not drawn) [compound 5] | 9.66 µM | – | PEST_LYP [2]: 0.81; IC50 ([2]; LYP IC50): 7.86 µM
Cc1ccc2cc(C(c3nnnn3C3CCCC3)N3CCN(C(c4ccccc4)c4ccccc4)CC3)c(=O)[nH]c2c1C (stereo not drawn) [compound 6] | 9.8 µM | – | PEST_LYP [2]: 1.07; IC50 ([2]; LYP IC50): 9.13 µM
Cc1ccc2[nH]c(=O)c([C@@H](c3nnnn3C3CCCC3)N(Cc3ccccc3)Cc3ccc(Cl)cc3)cc2c1 [compound 7] | 17 µM | – | –
Cc1cc(C)c2[nH]c(=O)c(C(c3nnnn3C3CCCC3)N3CCN(C(c4ccccc4)c4ccccc4)CC3)cc2c1 (stereo not drawn) [compound 8] | 9.57 µM | – | PEST_LYP [2]: 0.98; IC50 ([2]; LYP IC50): 9.72 µM
CCC(C)(C)n1nnnc1[C@@H](c1cc2cc(C)ccc2[nH]c1=O)N1CCCC2(CCCCC2)C1 [compound 9] | 15.9 µM | 10.4 µM | PEST_LYP [2, 4]: 1.53
Cc1cc(C)c2cc(C(c3nnnn3C3CCCC3)N3CCCC4(CCCCC4)C3)c(=O)[nH]c2c1 (stereo not drawn) [compound 10] | 16 µM | – | PEST_LYP [2]: 1.44; IC50 ([2]; LYP IC50): 11.1 µM
Cc1ccc2[nH]c(=O)c([C@@H](c3nnnn3Cc3ccccc3)N3CCCC4(CCCCC4)C3)cc2c1 [compound 11] | 15.1 µM | 11.1 µM | PEST_LYP [2, 4]: 1.36
CCC(C)(C)n1nnnc1[C@@H](c1cc2cc(C)cc(C)c2[nH]c1=O)N1CCCC2(CCCCC2)C1 [compound 12] | 20.1 µM | 11.9 µM | PEST_LYP [2, 4]: 1.69
Cc1ccc2cc(C(c3nnnn3C3CCCC3)N3CCCC4(CCCCC4)C3)c(=O)[nH]c2c1C (stereo not drawn) [compound 13] | 16.1 µM | – | PEST_LYP [2]: 1.33; IC50 ([2]; LYP IC50): 12.1 µM
Cc1cc(C)c2[nH]c(=O)c([C@@H](c3nnnn3Cc3ccccc3)N3CCCC4(CCCCC4)C3)cc2c1 [compound 14] | 15.2 µM | 12.9 µM | PEST_LYP [2, 4]: 1.18
COc1ccc(CN(Cc2ccccc2)[C@@H](c2cc3cc(C)ccc3[nH]c2=O)c2nnnn2C2CCCC2)cc1 [compound 15] | 15.1 µM | – | –
Cc1ccc2[nH]c(=O)c([C@@H](c3nnnn3C3CCCC3)N(CCc3ccccc3)Cc3ccccc3)cc2c1 [compound 16] | 19.7 µM | 13.3 µM | PEST_LYP [2, 4]: 1.46
Cc1cccc2cc(C(c3nnnn3C3CCCC3)N3CCN(C(c4ccccc4)c4ccccc4)CC3)c(=O)[nH]c12 (stereo not drawn) [compound 17] | 10.1 µM | – | PEST_LYP [2]: 0.76; IC50 ([2]; LYP IC50): 13.3 µM

SMILES | IC50 [1] | IC50 [2, 3] | other results
CCC(C)(C)n1nnnc1[C@@H](c1cc2cccc(C)c2[nH]c1=O)N1CCCC2(CCCCC2)C1 [compound 18] | 12.9 µM | 13.4 µM | PEST_LYP [2, 4]: 0.96
Cc1cc(C)c2[nH]c(=O)c([C@H](c3nnnn3C(C)(C)C)N3CCCC4(CCCCC4)C3)cc2c1 [compound 19] | 30.8 µM | 13.6 µM | PEST_LYP [2, 4]: 2.27
Cc1ccc2cc(C(c3nnnn3C3CCCC3)N3CCCC4(CCCCC4)C3)c(=O)[nH]c2c1 (stereo not drawn) [compound 21] | 21.8 µM | – | PEST_LYP [2]: 1.43; IC50 ([2]; LYP IC50): 15.2 µM
Cc1cccc2cc(C(c3nnnn3C3CCCC3)N3CCCC4(CCCCC4)C3)c(=O)[nH]c12 (stereo not drawn) [compound 22] | 21.1 µM | – | PEST_LYP [2]: 1.34; IC50 ([2]; LYP IC50): 15.8 µM
Cc1ccc2cc([C@H](c3nnnn3CC3CCCC3)N3CCCC4(CCCCC4)C3)c(=O)[nH]c2c1 [compound 23] | 38 µM | 17.1 µM | PEST_LYP [2, 4]: 2.22
Cc1ccc2[nH]c(=O)c([C@H](c3nnnn3C3CCCC3)N3CCC[C@@H](C)C3)cc2c1 [compound 24] | 26.5 µM | – | –
Cc1ccc2cc([C@H](c3nnnn3Cc3ccccc3)N3CCCC4(CCCCC4)C3)c(=O)[nH]c2c1C [compound 25] | 17.8 µM | 18.1 µM | PEST_LYP [2, 4]: 0.99
COc1ccc2cc(C(c3nnnn3C3CCCC3)N3CCCC4(CCCCC4)C3)c(=O)[nH]c2c1 (stereo not drawn) [compound 26] | 31.7 µM | – | PEST_LYP [2]: 1.74; IC50 ([2]; LYP IC50): 18.2 µM
Cc1ccc2[nH]c(=O)c([C@H](c3nnnn3C3CCCC3)N3CCN(c4ccc(F)cc4)CC3)cc2c1 [compound 45] | 38 µM | – | –
COc1ccccc1N1CCN([C@H](c2cc3cc(C)ccc3[nH]c2=O)c2nnnn2C2CCCC2)CC1 [compound 50] | – | – | IC50 [2, 5]: > 40 µM
CCN1CCN([C@H](c2cc3cc(C)ccc3[nH]c2=O)c2nnnn2C2CCCC2)CC1 [compound 52] | – | – | IC50 [2, 5]: > 40 µM
Cc1ccc2[nH]c(=O)c([C@H](c3nnnn3C3CCCC3)N3CCN(C)CC3)cc2c1 [compound 56] | – | – | IC50 [2, 5]: > 40 µM
Cc1ccc2[nH]c(=O)c([C@H](c3nnnn3C3CCCC3)N3CCN(C4CCCCC4)CC3)cc2c1 [compound 73] | – | – | IC50 [2, 5]: > 40 µM
Cc1ccc2[nH]c(=O)c([C@H](c3nnnn3C3CCCC3)N3CCN(c4ccc(O)cc4)CC3)cc2c1 [compound 74] | – | – | IC50 [2, 5]: > 40 µM
Cc1ccc2[nH]c(=O)c([C@H](c3nnnn3C3CCCC3)N3CCN(Cc4ccccc4)CC3)cc2c1 [compound 77] | – | – | IC50 [2, 5]: > 40 µM
Cc1ccc2[nH]c(=O)c([C@H](c3nnnn3C3CCCC3)N3CCN(Cc4ccccc4)CC3)cc2c1 [compound 80] | – | – | IC50 [2, 5]: > 40 µM
